SMILES strings stand for the structures. “Also recorded” adds a separate entry of the source.

Assay [1] concerns PPP1R15A. Kind of assay: Induction of PPP1R15A in mouse brain (qPCR). Type of assay: in vivo. As to conditions: mice, indicated doses. As to the method:
RNA from brain was extracted in trizol (Life Technologies). RNA concentration was measured using a NANODROP1000 spectrophotometer (Thermo Fisher Scientific), and 1 μg was reverse transcribed to cDNA using a SuperScript reverse transcriptase (Life Technologies). Quantitative PCR with primers GAPDH (f): […], GAPDH (r): […], PPP1R15A (f): […];
and PPP1R15A (r): […] was performed using SYBR® Select Master Mix (Ref 4472908, applied biosystems) on a Corbett Rotor-Gene version 6000. Expression of each gene was normalized to the housekeeping gene GAPDH and expressed as fold change calculated using Paffl equation.
PPP1R15A induction was assessed by qPCR on total mRNA extracted from brains of mice treated with the indicated doses of compound of Example 1.

The subject of assay [2] is PPP1R15A. Kind of assay: Induction of PPP1R15A expression in cells (immunoblot). Type of assay: cell-based, human. As to conditions: absence of stress. As to the method: For immunoblots, HeLa cells (80,000 cells/ml) were plated in 12-well plates 24 hours before each experiment. Immediately after the indicated treatments, cells were lysed in 75 μl Laemmli Buffer, boiled at 95° C. for 5 minutes and sonicated. Proteins were separated and analysed as described (Tsaytler et al., Science, 332, 91-94, 2011) with the following antibodies: phospho-elf2α [pS52] and PPP1R15A/GADD34 (10449-1-AP; ProteinTech Group, 1/1000 dilution).
Cells (90,000 cells/ml) were plated in a 24-well plate and treated as indicated. At the end of treatment cells were lysed in 150 μl Laemmli Buffer. Lysates were boiled at 95° C. for 5 minutes, sonicated and resolved on 4-12% Bolt Bis-Tris Plus Gels (Thermo Fisher Scientific). Proteins were transferred to the nitrocellulose membrane using the iBlot 2 system (Thermo Fisher Scientific) and analysed using the following antibodies: e-IF2α-P (44-728G, Thermo Fisher Scientific, 1:1000), e-IF2α (ab5369, Abcam, 1:1000), tubulin (T5168, Sigma-Aldrich, 1:4000), BiP (610978, BD Biosciences Pharmingen, 1:1000), ATF4 (sc-200, Santa Cruz Biotechnology, 1:500), Ppp1r15a (10449-1-AP, Proteintech, 1:1000) and Ppp1r15b (14634-1-AP, Proteintech, 1:1000). Proteins were visualized using ECL Prime (GE Healthcare).
(A western blot detects proteins with antibodies after separation by electrophoresis.)

In the case of `[H]/N=C(\N)NN=Cc1cccc(Cl)c1Cl` [Example 1, (E)-2-(2,3-dichlorobenzylidene)hydrazine-1-carboximidamide], in the assay with PPP1R15A [1], the “induction of PPP1R15A mRNA in brain” value is on record as “induced PPP1R15A; also recorded: induction of R15A”. In addition, the “expression of PPP1R15A (R15A) in cells” value is recorded as “induce PPP1R15A; also recorded: induces expression of R15A” in the assay on PPP1R15A [2] and “induced expression” in the assay on PPP1R15A [2] (listed as TST3).

The values are drawn from patent US11364211B2, “Methods for selecting phosphatase selective and non-selective phosphatase inhibitors” (MEDICAL RESEARCH COUNCIL, priority 2015, dated 2022).
